The results in this text go back to US20170045513A1, “METHODS OF DIAGNOSING CELIAC DISEASE USING IP-10” (ImmusanT, Inc., priority 2014, published 2017).

Non-standard residues stand in square brackets, D forms with d. pGlu = O=C1CC[C@@H](C(=O)O)N1

Type in all cases: cell-based, human
The test system of test [1] is gluten-reactive T cells. In words: 96-well plate whole blood cytokine release, IFNγ by MAGPIX multiplex bead assay. The conditions noted are these: for Percent of maximal response to individual gluten peptides, IFNg: after oral gluten challenge; for IFNγ WB MAGPIX % max Mean: n = 8, blood after oral gluten challenge, individual peptides 5 μM (Peptide 2* of P14, Pepscan: 10 μg/mL (5.45 μM)).

Test [2] deals with gluten-reactive T cells. Description: Overnight IFNγ ELISpot assay with fresh PBMC. The conditions noted are these: for Percent of maximal response to individual gluten peptides, ELISp: after oral gluten challenge; for IFNγ ELISpot % max Mean: n = 5, blood after oral gluten challenge, individual peptides 5 μM (Peptide 2* of P14, Pepscan: 10 μg/mL (5.45 μM)). Summed up:
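Read-out is IFNγ spot-forming units per well, counted automatically after overnight culture of fresh PBMC (0.4 million/well) with single peptides (duplicate) or pools (triplicate). Donors: HLA-DQ2.5+ celiac patients on gluten-free diet, bled pre- and day 6 after 3-day oral gluten challenge.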

Test [3] has as its system gluten-reactive T cells. Description: Cytokine release assays taken together (IFNγ ELISpot, whole blood IFNγ and IP-10, in-tube IFNγ ELISA). The conditions noted are these: for activity relative to Peptide 14 in the cytokine release assays: blood collected after oral gluten challenge; for cytokine release / immunogenicity of individual peptide: HLA-DQ2.5+ celiac disease subjects after gluten challenge. The method, boiled down: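 Whole blood with peptides (P3 0.05-50 μg/mL; P13/P14 0.025-25 μM; […]), 24 h, 37 °C; plasma IFNγ/IP-10 by multiplex beads. Tube assay: 1 mL blood with P3 or CEF, 24 h, plasma IFNγ ELISA; elevated if >7.2 pg/mL above medium tube and SI >1.25. ELISpot overnight on fresh PBMC.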

Consider “(pE)QPFPQPEQPIPVQPEQS-amide ([pGlu]QPFPQPEQPIPVQPEQS-NH2; SMILES CC[C@H](C)[C@H](NC(=O)[C@@H]1CCCN1C(=O)[C@H](CCC(N)=O)NC(=O)[C@H](CCC(=O)O)NC(=O)[C@@H]1CCCN1C(=O)[C@H](CCC(N)=O)NC(=O)[C@@H]1CCCN1C(=O)[C@H](Cc1ccccc1)NC(=O)[C@@H]1CCCN1C(=O)[C@H](CCC(N)=O)NC(=O)[C@@H]1CCC(=O)N1)C(=O)N1CCC[C@H]1C(=O)N[C@H](C(=O)N[C@@H](CCC(N)=O)C(=O)N1CCC[C@H]1C(=O)N[C@@H](CCC(=O)O)C(=O)N[C@@H](CCC(N)=O)C(=O)N[C@@H](CO)C(N)=O)C(C)C) [Peptide 4]”, for which the “Percent of maximal response to individual gluten peptides, IFNg” value (“Percent of maximal response … IFNg” below) with gluten-reactive T cells [1] (Subject 2, Max. 116 pg/mL) is listed as 33 % of max; with gluten-reactive T cells [1] (Subject 3, Max. 799 pg/mL) it was 13 % of max; with gluten-reactive T cells [1] (Subject 4, Max. 136 pg/mL) it was 24 % of max; with gluten-reactive T cells [1] (Subject 6, Max. 72 pg/mL), 1 % of max; with gluten-reactive T cells [1] (Subject 7, Max. 17 pg/mL) it was 1 % of max; in the test with gluten-reactive T cells [1] (Subject 8, Max. 47 pg/mL) it was 9 % of max. Moreover, the “Percent of maximal response … IFNg” value with gluten-reactive T cells [1] (Subject 9, Max. 67 pg/mL) is on record as 29 % of max; with gluten-reactive T cells [1] (Subject 10, Max. 229 pg/mL), 11 % of max. Also, the “IFNγ WB MAGPIX % max Mean” value with gluten-reactive T cells [1] was 15 % max. Moreover, the “Percent of maximal response to individual gluten peptides, ELISp” value (from here on “Percent of maximal response … ELISp”) was 17 % of max in the test on gluten-reactive T cells [2] (Subject 3, Max. 18 SFU); 44 % of max in the test with gluten-reactive T cells [2] (Subject 4, Max. 36 SFU); 19 % of max in the test with gluten-reactive T cells [2] (Subject 6, Max. 16 SFU); 12 % of max with gluten-reactive T cells [2] (Subject 8, Max. 17 SFU); 27 % of max with gluten-reactive T cells [2] (Subject 10, Max. 11 SFU). The “IFNγ ELISpot % max Mean” value in the test with gluten-reactive T cells [2] is on record as 24 % max. The “activity relative to Peptide 14 in the cytokine release assays” value with gluten-reactive T cells [3] is “from one-half to one-eighth as active as Peptide 14”.
With “(pE)QPFPQPEQPTPIQPEQP-amide ([pGlu]QPFPQPEQPTPIQPEQP-NH2; SMILES CC[C@H](C)[C@H](NC(=O)[C@@H]1CCCN1C(=O)[C@@H](NC(=O)[C@@H]1CCCN1C(=O)[C@H](CCC(N)=O)NC(=O)[C@H](CCC(=O)O)NC(=O)[C@@H]1CCCN1C(=O)[C@H](CCC(N)=O)NC(=O)[C@@H]1CCCN1C(=O)[C@H](Cc1ccccc1)NC(=O)[C@@H]1CCCN1C(=O)[C@H](CCC(N)=O)NC(=O)[C@@H]1CCC(=O)N1)[C@@H](C)O)C(=O)N[C@@H](CCC(N)=O)C(=O)N1CCC[C@H]1C(=O)N[C@@H](CCC(=O)O)C(=O)N[C@@H](CCC(N)=O)C(=O)N1CCC[C@H]1C(N)=O) [Peptide 5]”, the “Percent of maximal response … IFNg” value with gluten-reactive T cells [1] (Subject 2, Max. 116 pg/mL) is 39 % of max; in the test with gluten-reactive T cells [1] (Subject 3, Max. 799 pg/mL) it was 5 % of max; in the test with gluten-reactive T cells [1] (Subject 4, Max. 136 pg/mL), 13 % of max; with gluten-reactive T cells [1] (Subject 6, Max. 72 pg/mL) it was 1 % of max; in the test with gluten-reactive T cells [1] (Subject 7, Max. 17 pg/mL) it was 6 % of max; with gluten-reactive T cells [1] (Subject 8, Max. 47 pg/mL), 0 % of max. Moreover, the “Percent of maximal response … IFNg” value with gluten-reactive T cells [1] (Subject 9, Max. 67 pg/mL) is listed as 0 % of max; with gluten-reactive T cells [1] (Subject 10, Max. 229 pg/mL), 27 % of max. Besides, in the test with gluten-reactive T cells [1], the “IFNγ WB MAGPIX % max Mean” value was 11 (11) % max. In addition, the “Percent of maximal response … ELISp” value with gluten-reactive T cells [2] (Subject 3, Max. 18 SFU) is 17 % of max; in the test with gluten-reactive T cells [2] (Subject 4, Max. 36 SFU), 19 % of max; in the test on gluten-reactive T cells [2] (Subject 6, Max. 16 SFU), 0 % of max; in the test on gluten-reactive T cells [2] (Subject 8, Max. 17 SFU), 18 % of max; with gluten-reactive T cells [2] (Subject 10, Max. 11 SFU), 55 % of max. The “IFNγ ELISpot % max Mean” value in the test with gluten-reactive T cells [2] is given as 22 % max. Besides, the “activity relative to Peptide 14 in the cytokine release assays” value with gluten-reactive T cells [3] is given as “from one-half to one-eighth as active as Peptide 14”.
Consider “(pE)QPPFSEQEQPVLPQ-amide (N-terminal pyroglutamate; C-terminal amide) [Peptide 13]”, for which the “Percent of maximal response … IFNg” value in the test with gluten-reactive T cells [1] (Subject 2, Max. 116 pg/mL) is recorded as 47 % of max; in the test with gluten-reactive T cells [1] (Subject 3, Max. 799 pg/mL), 3 % of max; in the test with gluten-reactive T cells [1] (Subject 4, Max. 136 pg/mL) it was 0 % of max; with gluten-reactive T cells [1] (Subject 6, Max. 72 pg/mL) it was 5 % of max; in the test on gluten-reactive T cells [1] (Subject 7, Max. 17 pg/mL), 1 % of max; with gluten-reactive T cells [1] (Subject 8, Max. 47 pg/mL) it was 0 % of max. Also, the “Percent of maximal response … IFNg” value in the test with gluten-reactive T cells [1] (Subject 9, Max. 67 pg/mL) is reported as 0 % of max; with gluten-reactive T cells [1] (Subject 10, Max. 229 pg/mL) it was 0 % of max. Also, the “IFNγ WB MAGPIX % max Mean” value in the test on gluten-reactive T cells [1] worked out at 7 % max. Moreover, the “Percent of maximal response … ELISp” value in the test with gluten-reactive T cells [2] (Subject 3, Max. 18 SFU) was 6 % of max; with gluten-reactive T cells [2] (Subject 4, Max. 36 SFU) it was 6 % of max; with gluten-reactive T cells [2] (Subject 6, Max. 16 SFU) it was 0 % of max; in the test on gluten-reactive T cells [2] (Subject 8, Max. 17 SFU) it was 0 % of max; in the test on gluten-reactive T cells [2] (Subject 10, Max. 11 SFU), 0 % of max. Moreover, the “IFNγ ELISpot % max Mean” value in the test with gluten-reactive T cells [2] worked out at 2 % max. In addition, the “cytokine release / immunogenicity of individual peptide” value with gluten-reactive T cells [3] is “weak or not distinguishable from medium alone”.
With “(pE)QPYPQPELPYPQPQ-amide ([pGlu]QPYPQPELPYPQPQ-NH2; SMILES CC(C)C[C@H](NC(=O)[C@H](CCC(=O)O)NC(=O)[C@@H]1CCCN1C(=O)[C@H](CCC(N)=O)NC(=O)[C@@H]1CCCN1C(=O)[C@H](Cc1ccc(O)cc1)NC(=O)[C@@H]1CCCN1C(=O)[C@H](CCC(N)=O)NC(=O)[C@@H]1CCC(=O)N1)C(=O)N1CCC[C@H]1C(=O)N[C@@H](Cc1ccc(O)cc1)C(=O)N1CCC[C@H]1C(=O)N[C@@H](CCC(N)=O)C(=O)N1CCC[C@H]1C(=O)N[C@@H](CCC(N)=O)C(N)=O) [Peptide 15]”, the “Percent of maximal response … IFNg” value is recorded as 46 % of max in the test on gluten-reactive T cells [1] (Subject 2, Max. 116 pg/mL); 5 % of max with gluten-reactive T cells [1] (Subject 3, Max. 799 pg/mL); 24 % of max in the test on gluten-reactive T cells [1] (Subject 4, Max. 136 pg/mL); 5 % of max in the test with gluten-reactive T cells [1] (Subject 6, Max. 72 pg/mL); 6 % of max in the test with gluten-reactive T cells [1] (Subject 7, Max. 17 pg/mL); 4 % of max in the test with gluten-reactive T cells [1] (Subject 8, Max. 47 pg/mL). In addition, the “Percent of maximal response … IFNg” value was 100 % of max in the test on gluten-reactive T cells [1] (Subject 9, Max. 67 pg/mL) and 7 % of max in the test with gluten-reactive T cells [1] (Subject 10, Max. 229 pg/mL). The “IFNγ WB MAGPIX % max Mean” value with gluten-reactive T cells [1] stood at 25 % max. Also, the “Percent of maximal response … ELISp” value with gluten-reactive T cells [2] (Subject 3, Max. 18 SFU) is given as 11 % of max; with gluten-reactive T cells [2] (Subject 4, Max. 36 SFU) it was 17 % of max; with gluten-reactive T cells [2] (Subject 6, Max. 16 SFU), 31 % of max; with gluten-reactive T cells [2] (Subject 8, Max. 17 SFU), 6 % of max; in the test with gluten-reactive T cells [2] (Subject 10, Max. 11 SFU), 0 % of max. In the test with gluten-reactive T cells [2], the “IFNγ ELISpot % max Mean” value was determined as 13 % max. Moreover, the “activity relative to Peptide 14 in the cytokine release assays” value in the test on gluten-reactive T cells [3] was “no more than two-thirds as active as Peptide 14”.
Turning to “(pE)SGEGSFQPSQENPQ-amide ([pGlu]SGEGSFQPSQENPQ-NH2; SMILES NC(=O)CC[C@H](NC(=O)[C@@H]1CCCN1C(=O)[C@H](CC(N)=O)NC(=O)[C@H](CCC(=O)O)NC(=O)[C@H](CCC(N)=O)NC(=O)[C@H](CO)NC(=O)[C@@H]1CCCN1C(=O)[C@H](CCC(N)=O)NC(=O)[C@H](Cc1ccccc1)NC(=O)[C@H](CO)NC(=O)CNC(=O)[C@H](CCC(=O)O)NC(=O)CNC(=O)[C@H](CO)NC(=O)[C@@H]1CCC(=O)N1)C(N)=O) [Peptide 9]”, the “Percent of maximal response … IFNg” value was 19 % of max in the test on gluten-reactive T cells [1] (Subject 2, Max. 116 pg/mL); 0 % of max in the test on gluten-reactive T cells [1] (Subject 3, Max. 799 pg/mL); 0 % of max with gluten-reactive T cells [1] (Subject 4, Max. 136 pg/mL); 0 % of max in the test with gluten-reactive T cells [1] (Subject 6, Max. 72 pg/mL); 0 % of max in the test on gluten-reactive T cells [1] (Subject 7, Max. 17 pg/mL); 0 % of max in the test with gluten-reactive T cells [1] (Subject 8, Max. 47 pg/mL). Moreover, the “Percent of maximal response … IFNg” value is 0 % of max in the test on gluten-reactive T cells [1] (Subject 9, Max. 67 pg/mL) and 0 % of max in the test with gluten-reactive T cells [1] (Subject 10, Max. 229 pg/mL). Besides, the “IFNγ WB MAGPIX % max Mean” value in the test with gluten-reactive T cells [1] was 2 % max. Moreover, the “Percent of maximal response … ELISp” value in the test with gluten-reactive T cells [2] (Subject 3, Max. 18 SFU) was 0 % of max; in the test on gluten-reactive T cells [2] (Subject 4, Max. 36 SFU), 0 % of max; in the test with gluten-reactive T cells [2] (Subject 6, Max. 16 SFU), 0 % of max; in the test on gluten-reactive T cells [2] (Subject 8, Max. 17 SFU), 6 % of max; in the test on gluten-reactive T cells [2] (Subject 10, Max. 11 SFU), 0 % of max. Moreover, in the test with gluten-reactive T cells [2], the “IFNγ ELISpot % max Mean” value came out at 1 % max. In addition, in the test with gluten-reactive T cells [3], the “cytokine release / immunogenicity of individual peptide” value is given as “weak or not distinguishable from medium alone”.
